Data on seven compounds can be found in patent US9593381B2, “Method and kit for detecting carbapenemase genes” (Amplidiag OY, priority 2009, dated 2017).

Test [1] addresses T1, NDM-1 (Klebsiella pneumoniae, UniProt C7C422). The following applies: cited from earlier work.
Test [2] concerns the target T1, NDM-1. To be noted: metallo-β-lactamase NDM-1; cited from earlier work.
Test [3] relates to Enterobacter cloacae strain harbouring IMI-2 gene. In words: Antibiotic susceptibility (MIC) of the IMI-2 positive clinical strain. It is filed as cell-based. Further details: MIC: unit not given beside the values. To be noted: for resistance of the strain: IMI-2 positive Enterobacter cloacae strain.

T1 sequence (C7C422 29-270 limits assumed): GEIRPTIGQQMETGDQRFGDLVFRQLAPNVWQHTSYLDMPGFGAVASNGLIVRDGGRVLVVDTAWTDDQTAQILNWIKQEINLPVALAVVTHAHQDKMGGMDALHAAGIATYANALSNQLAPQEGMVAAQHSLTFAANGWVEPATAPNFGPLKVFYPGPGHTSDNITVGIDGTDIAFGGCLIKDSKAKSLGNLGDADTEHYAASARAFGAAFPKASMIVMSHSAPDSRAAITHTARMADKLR

`CO/N=C(\C(=O)N[C@@H]1C(=O)N2C(C(=O)O)=C(COC(N)=O)CS[C@H]12)c1ccco1` [cefuroxime]: the “binding to NDM-1 compared to VIM-2” value in test [1] was “tighter binding”.
`C[C@H]1[C@H](NC(=O)/C(=N\OC(C)(C)C(=O)O)c2csc(N)n2)C(=O)N1S(=O)(=O)O` [aztreonam]: the “hydrolysis by NDM-1” value in test [2] is reported as “can hydrolyze all β-lactams except aztreonam”.
In the case of `CO/N=C(\C(=O)N[C@@H]1C(=O)N2C(C(=O)O)=C(COC(C)=O)CS[C@H]12)c1csc(N)n1` [cefotaxime], the “binding to NDM-1 compared to VIM-2” value in test [1] was “tighter binding”.
Take `C[C@@H](O)[C@H]1C(=O)N2C(C(=O)O)=C(S[C@@H]3CN[C@H](C(=O)N(C)C)C3)[C@H](C)[C@H]12` [meropenem]: the “resistance of the strain” value in test [3] was “highly resistant”.
As for `CC(=O)OCC1=C(C(=O)O)N2C(=O)[C@@H](NC(=O)Cc3cccs3)[C@H]2SC1` [cephalothin], the “binding to NDM-1 compared to VIM-2” value in test [1] is listed as “tighter binding”.
On to trimetoprim/sulfa, for which, in test [3], the “resistance of the strain” value was “not, however, resistant”.
As to `C[C@@H](O)[C@H]1C(=O)N2C(C(=O)O)=C(S[C@@H]3CN[C@H](C(=O)Nc4cccc(C(=O)O)c4)C3)[C@H](C)[C@H]12` [ertapenem], the “resistance of the strain” value in test [3] was “highly resistant”. The MIC in test [3] (IMI-2 positive Enterobacter cloacae strain isolated from a patient in intensive care unit) is reported as above 256.
